Measurements taken from ChEMBL document CHEMBL2424533, “Design and regioselective synthesis of trifluoromethylquinolone derivatives as potent antimicrobial agents” (2013).
≈ marks a conversion by molar mass, not a printed value. Calls of active or inactive are those of the source. No cut-off for these calls is given here.

How the values were obtained:
Pseudomonas aeruginosa [1] = experiment: Antimicrobial activity against Pseudomonas aeruginosa MTCC 4673 after 12 hrs by well diffusion method; format: functional; settings: MTCC 4673, 12 h
Salmonella typhimurium [2] = experiment: Antimicrobial activity against Salmonella typhimurium MTCC 3732 after 12 hrs by well diffusion method; format: functional, Salmonella enterica subsp. enterica serovar Typhimurium; settings: Salmonella enterica, MTCC 3732, 12 h
Pseudomonas aeruginosa [3] = experiment: Antimicrobial activity against Pseudomonas aeruginosa MTCC 4673 at 100 ug/mL after 12 hrs by well diffusion method; format: functional; settings: for zone of inhibition at 100 µg/mL: MTCC 4673, 12 h, read-out: DIZ
Candida albicans [4] = experiment: Antimicrobial activity against Candida albicans MTCC 183 at 50 ug/mL after 12 hrs by well diffusion method; format: functional; settings: for zone of inhibition at 50 µg/mL: MTCC 183, 12 h, read-out: DIZ
[5] = test system: Mycolicibacterium smegmatis; experiment: Antimicrobial activity against Mycobacterium smegmatis MTCC 943 at 50 ug/mL after 12 hrs by well diffusion method; format: functional
Candida albicans [6] = experiment: Antimicrobial activity against Candida albicans MTCC 183 at 100 ug/mL after 12 hrs by well diffusion method; format: functional; settings: for zone of inhibition at 100 µg/mL: MTCC 183, 12 h, read-out: DIZ
[7] = test system: Mycolicibacterium smegmatis; experiment: Antimicrobial activity against Mycobacterium smegmatis MTCC 943 at 100 ug/mL after 12 hrs by well diffusion method; format: functional
Staphylococcus aureus [8] = settings: MTCC 3160, 50 ug/mL
Description: Antimicrobial activity against Staphylococcus aureus MTCC 3160 at 50 ug/mL after 12 hrs by well diffusion method

Candida albicans [9] = experiment: Antimicrobial activity against Candida albicans MTCC 183 after 12 hrs by well diffusion method; format: functional; settings: MTCC 183, 12 h
Salmonella typhimurium [10] = experiment: Antimicrobial activity against Salmonella typhimurium MTCC 3732 at 50 ug/mL after 12 hrs by well diffusion method; format: functional; settings: for diameter of the inhibition zone (DIZ): Salmonella enterica subsp. enterica serovar Typhimurium
Staphylococcus aureus [11] = experiment: Antimicrobial activity against Staphylococcus aureus MTCC 3160 at 100 ug/mL after 12 hrs by well diffusion method; format: functional; settings: for zone of inhibition at 100 µg/mL: MTCC 3160, 12 h, read-out: DIZ
Salmonella typhimurium [12] = experiment: Antimicrobial activity against Salmonella typhimurium MTCC 3732 at 100 ug/mL after 12 hrs by well diffusion method; format: functional; settings: for diameter of the inhibition zone (DIZ): Salmonella enterica subsp. enterica serovar Typhimurium
Pseudomonas aeruginosa [13] = experiment: Antimicrobial activity against Pseudomonas aeruginosa MTCC 4673 at 50 ug/mL after 12 hrs by well diffusion method; format: functional; settings: for zone of inhibition at 50 µg/mL: MTCC 4673, 12 h, read-out: DIZ
[14] = test system: Mycolicibacterium smegmatis; experiment: Antimicrobial activity against Mycobacterium smegmatis MTCC 943 after 12 hrs by well diffusion method; format: functional; settings: MTCC 943, 12 h
Staphylococcus aureus [15] = experiment: Antimicrobial activity against Staphylococcus aureus MTCC 3160 after 12 hrs by well diffusion method; format: functional; settings: MTCC 3160, 12 h
[16] = Salmonella enterica, MTCC 3732, 12 h, read-out: DIZ

Row | Compound | MIC (Pseudomonas aeruginosa [1]) [µg/mL] | MIC (Salmonella typhimurium [2]) [µg/mL] | zone of inhibition at 100 µg/mL (Pseudomonas aeruginosa [3]) [mm] | diameter of the inhibition zone (DIZ) [5] | zone of inhibition at 100 µg/mL (Candida albicans [6]) [mm] | diameter of the inhibition zone (DIZ) [7] | DIZ (Staphylococcus aureus [8]) | MIC (Candida albicans [9]) [µg/mL] | diameter of the inhibition zone (DIZ) (Salmonella typhimurium [10]) | diameter of the inhibition zone (DIZ) (Staphylococcus aureus [11]) | diameter of the inhibition zone (DIZ) (Salmonella typhimurium [12]) | zone of inhibition at 50 µg/mL (Pseudomonas aeruginosa [13]) [mm] | MIC [14] [µg/mL] | MIC (Staphylococcus aureus [15]) [µg/mL] | diameter of the inhibition zone (DIZ) (Pseudomonas aeruginosa [3]) | diameter of the inhibition zone (DIZ) (Candida albicans [4]) | diameter of the inhibition zone (DIZ) (Candida albicans [6]) | diameter of the inhibition zone (DIZ) (Pseudomonas aeruginosa [13]) | further results
1 | N#Cc1ccc(Cn2cc(C(=O)O)c(=O)c3ccc(C(F)(F)F)cc32)cc1 | 25 (≈ 67.1 µM) | > 100 | 8 | inactive | 8.33 | inactive | inactive | 50 (≈ 134 µM) | inactive | inactive | inactive | 8 | > 100 | > 100 | – | – | – | – | zone of inhibition at 50 µg/mL (Candida albicans [4]): 7.6 mm
2 | C#CCn1cc(C(=O)OCC)c(=O)c2cccc(C(F)(F)F)c21 | – | – | – | inactive | – | inactive | inactive | – | inactive | inactive | inactive | – | – | – | inactive | inactive | inactive | inactive | –
3 | C#CCn1cc(C(=O)OCC)c(=O)c2ccc(C(F)(F)F)cc21 | 50 (≈ 155 µM) | 25 (≈ 77.3 µM) | 8 | inactive | 8.33 | – | inactive | 100 (≈ 309 µM) | – | – | – | 7 | 100 (≈ 309 µM) | 100 (≈ 309 µM) | – | inactive | – | – | zone of inhibition at 100 µg/mL ([7]; MTCC 943, 12 h, read-out: DIZ): 9 mm; zone of inhibition at 50 µg/mL (Salmonella typhimurium [10]; [16]): 10.3 mm; zone of inhibition at 100 µg/mL (Staphylococcus aureus [11]): 9 mm; zone of inhibition at 100 µg/mL (Salmonella typhimurium [12]; [16]): 11 mm
4 | OC(Cn1cncn1)(Cn1cncn1)c1ccc(F)cc1F [FLUCONAZOLE] | – | – | – | – | 29 | – | – | < 10 | – | – | – | – | – | – | – | – | – | – | zone of inhibition at 50 µg/mL (Candida albicans [4]): 26.3 mm
5 | N#Cc1ccc(Cn2cc(C(=O)O)c(=O)c3cccc(C(F)(F)F)c32)cc1 | 25 (≈ 67.1 µM) | > 100 | 8 | inactive | 8 | inactive | inactive | 100 (≈ 269 µM) | inactive | – | inactive | 8 | > 100 | 100 (≈ 269 µM) | – | inactive | – | – | zone of inhibition at 100 µg/mL (Staphylococcus aureus [11]): 8 mm
6 | CCOC(=O)c1cn(Cc2ccc(Cl)cc2Cl)c2cc(C(F)(F)F)ccc2c1=O | – | – | – | inactive | – | inactive | inactive | – | inactive | inactive | inactive | – | – | – | inactive | inactive | inactive | inactive | –
7 | CCOC(=O)c1cn(Cc2ccc(C#N)cc2)c2c(C(F)(F)F)cccc2c1=O | – | – | – | inactive | – | inactive | inactive | – | inactive | inactive | inactive | – | – | – | inactive | inactive | inactive | inactive | –
